Reference: ChEMBL document CHEMBL1201862, “PubChem BioAssay data set” (2004)
Calls of active or inactive are those of the source.

What was measured:
[1] = molecular target: T1, Runt-related transcription factor 1/Core-binding factor subunit beta (Homo sapiens, UniProt Q01196+Q13951); test: Runt domain/CBFb-SMMHC interaction disruptors – biochemical, TR-FRET (AID 1438); assay type: protein assay
[2] = molecular target: T2, Polyadenylate-binding protein 1 (Homo sapiens, UniProt P11940); test: MLLE domain peptide-binding blockers, IC50 – biochemical, fluorescence polarization, FITC-PAM2 peptide, dose response (AID 602259); assay type: functional; details: read-out: IC50_Mean
T2 sequence (P11940 whole entry, the tested form may be a part): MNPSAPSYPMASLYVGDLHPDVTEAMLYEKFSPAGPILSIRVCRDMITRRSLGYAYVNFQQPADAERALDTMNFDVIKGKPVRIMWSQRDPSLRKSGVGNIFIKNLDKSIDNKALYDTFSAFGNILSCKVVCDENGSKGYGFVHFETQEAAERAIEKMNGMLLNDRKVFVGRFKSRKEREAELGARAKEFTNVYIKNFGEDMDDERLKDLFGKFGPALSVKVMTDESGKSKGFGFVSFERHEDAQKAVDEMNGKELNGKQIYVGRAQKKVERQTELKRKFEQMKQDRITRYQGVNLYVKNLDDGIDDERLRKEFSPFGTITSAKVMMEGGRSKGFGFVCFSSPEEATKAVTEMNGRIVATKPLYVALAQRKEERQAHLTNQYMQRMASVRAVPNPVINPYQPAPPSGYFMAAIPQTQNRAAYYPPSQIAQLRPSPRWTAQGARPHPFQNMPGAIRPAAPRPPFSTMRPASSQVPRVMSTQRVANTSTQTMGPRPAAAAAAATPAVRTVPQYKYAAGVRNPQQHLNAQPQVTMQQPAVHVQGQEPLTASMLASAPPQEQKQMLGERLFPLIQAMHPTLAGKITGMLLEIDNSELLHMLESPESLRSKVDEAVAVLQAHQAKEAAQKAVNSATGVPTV

[3] = molecular target: T2, Polyadenylate-binding protein 1; test: MLLE binding blockers, Cy5 peptide tracer – biochemical, fluorescence polarization, Cy5-PAM2 peptide, secondary, miRNA deadenylation inhibitor project, dose response (AID 602260); assay type: functional; details: read-out: IC50_Mean
[4] = molecular target: T1, Runt-related transcription factor 1/Core-binding factor subunit beta; test: disruptors of Runt domain/CBFb-SMMHC interaction – biochemical, FRET, Cerulean-Runt, Venus-CBFb-SMMHC, uHTS, […] (AID 1434); assay type: protein assay
[5] = molecular target: Ion channel NompC (Danio rerio, UniProt Q7T1G6); test: Dose response cell-based high-throughput screening assay for agonists of the transient receptor potential channel N1 (TRPN1). [Related pubchem assays (depositor defined):AID1424, AID1448]; assay type: functional
Sequence of Ion channel NompC (Q7T1G6 whole entry): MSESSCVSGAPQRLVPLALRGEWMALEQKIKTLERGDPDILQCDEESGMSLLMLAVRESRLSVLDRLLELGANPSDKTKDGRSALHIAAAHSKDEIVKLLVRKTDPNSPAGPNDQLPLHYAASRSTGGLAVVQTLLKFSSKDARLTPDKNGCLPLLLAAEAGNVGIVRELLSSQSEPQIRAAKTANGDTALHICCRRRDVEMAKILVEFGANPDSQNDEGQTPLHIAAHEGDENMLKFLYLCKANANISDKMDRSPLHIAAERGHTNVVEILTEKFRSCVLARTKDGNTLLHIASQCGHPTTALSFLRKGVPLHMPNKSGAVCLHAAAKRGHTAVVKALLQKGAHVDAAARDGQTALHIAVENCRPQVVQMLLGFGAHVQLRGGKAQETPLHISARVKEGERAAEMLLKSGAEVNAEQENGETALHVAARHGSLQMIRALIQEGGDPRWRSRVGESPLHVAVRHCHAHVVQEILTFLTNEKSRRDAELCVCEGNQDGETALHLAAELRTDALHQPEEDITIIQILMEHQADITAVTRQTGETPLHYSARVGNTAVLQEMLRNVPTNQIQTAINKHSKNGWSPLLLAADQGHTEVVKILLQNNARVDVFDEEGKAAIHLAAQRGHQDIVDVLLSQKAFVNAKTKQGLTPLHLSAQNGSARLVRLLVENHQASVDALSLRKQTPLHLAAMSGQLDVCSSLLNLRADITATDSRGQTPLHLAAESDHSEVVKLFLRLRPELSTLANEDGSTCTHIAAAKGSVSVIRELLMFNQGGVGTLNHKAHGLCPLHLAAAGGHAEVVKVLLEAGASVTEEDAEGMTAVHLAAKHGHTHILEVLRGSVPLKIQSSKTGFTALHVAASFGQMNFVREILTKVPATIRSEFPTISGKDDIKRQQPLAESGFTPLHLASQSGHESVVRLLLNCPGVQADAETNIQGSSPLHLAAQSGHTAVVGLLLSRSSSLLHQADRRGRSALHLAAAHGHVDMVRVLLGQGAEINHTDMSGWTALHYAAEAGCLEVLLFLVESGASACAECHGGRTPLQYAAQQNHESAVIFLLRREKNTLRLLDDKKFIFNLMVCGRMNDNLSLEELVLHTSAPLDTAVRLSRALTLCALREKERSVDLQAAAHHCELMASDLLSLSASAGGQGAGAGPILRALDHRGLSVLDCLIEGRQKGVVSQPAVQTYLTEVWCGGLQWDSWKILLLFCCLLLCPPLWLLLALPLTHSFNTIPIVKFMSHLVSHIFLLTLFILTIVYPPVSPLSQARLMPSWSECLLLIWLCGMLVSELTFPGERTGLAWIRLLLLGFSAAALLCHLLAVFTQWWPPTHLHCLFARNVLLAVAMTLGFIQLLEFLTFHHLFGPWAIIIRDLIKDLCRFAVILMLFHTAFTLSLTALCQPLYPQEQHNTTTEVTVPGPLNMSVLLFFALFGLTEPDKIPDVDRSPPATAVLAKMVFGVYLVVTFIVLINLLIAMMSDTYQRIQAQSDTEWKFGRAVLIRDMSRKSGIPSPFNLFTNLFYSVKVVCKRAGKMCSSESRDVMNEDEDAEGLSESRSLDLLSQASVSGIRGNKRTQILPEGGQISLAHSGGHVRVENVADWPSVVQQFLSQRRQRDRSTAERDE

[6] = molecular target: Mucolipin-3 (Homo sapiens, UniProt Q8TDD5); test: Fluorescence counterscreen assay for […] agonists: dose response cell-based high-throughput screening assay to identify agonists of the transient receptor potential channel ML3 (TRPML3). [Related pubchem assays: 1424, 1448 ]; assay type: functional
Sequence of Mucolipin-3 (Q8TDD5 whole entry): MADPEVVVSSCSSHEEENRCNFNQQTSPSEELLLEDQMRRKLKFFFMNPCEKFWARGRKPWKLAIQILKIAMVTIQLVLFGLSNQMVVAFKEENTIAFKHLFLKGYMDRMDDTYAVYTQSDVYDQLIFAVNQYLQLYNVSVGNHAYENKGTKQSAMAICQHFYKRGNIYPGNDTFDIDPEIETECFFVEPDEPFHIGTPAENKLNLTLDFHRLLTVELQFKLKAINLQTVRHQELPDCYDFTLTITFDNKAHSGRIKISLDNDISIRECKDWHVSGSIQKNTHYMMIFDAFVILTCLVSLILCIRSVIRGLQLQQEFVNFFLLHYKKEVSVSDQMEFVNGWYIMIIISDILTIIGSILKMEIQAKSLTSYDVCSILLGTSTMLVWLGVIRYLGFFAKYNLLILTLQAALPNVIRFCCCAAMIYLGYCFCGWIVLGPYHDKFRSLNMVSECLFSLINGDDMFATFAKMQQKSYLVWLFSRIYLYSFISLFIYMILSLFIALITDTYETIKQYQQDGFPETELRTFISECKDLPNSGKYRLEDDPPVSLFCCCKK

[7] = viability of uninfected HEp-2 cells – cell-based, HTS, cytotoxicity control for RSV inhibitor project, dose response (AID 2410); assay type: functional; details: human respiratory syncytial virus
[8] = molecular target: 5-hydroxytryptamine receptor 5A (Homo sapiens, UniProt P47898); test: Counterscreen for agonists of OPRM1-OPRD1 heterodimerization: luminescence-based cell-based high throughput dose response assay to identify agonists of 5-hydroxytryptamine (serotonin) 5A receptor (HTR5A). [Related pubchem assays (depositor defined):AID504326, AID504355, AID504692, AID504904, AID504905]; assay type: functional
Sequence of 5-hydroxytryptamine receptor 5A (P47898 whole entry, the tested form may be a part): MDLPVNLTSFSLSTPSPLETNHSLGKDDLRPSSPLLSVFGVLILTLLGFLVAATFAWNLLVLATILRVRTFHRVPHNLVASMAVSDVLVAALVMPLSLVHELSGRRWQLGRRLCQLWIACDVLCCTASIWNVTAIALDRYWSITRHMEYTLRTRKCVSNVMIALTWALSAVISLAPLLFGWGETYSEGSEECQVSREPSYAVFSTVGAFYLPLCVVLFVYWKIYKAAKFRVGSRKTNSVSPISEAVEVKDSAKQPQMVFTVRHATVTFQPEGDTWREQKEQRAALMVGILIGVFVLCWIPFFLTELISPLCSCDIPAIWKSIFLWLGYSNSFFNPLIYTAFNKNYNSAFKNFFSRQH

[9] = molecular target: T3, Type-1 angiotensin II receptor (Homo sapiens, UniProt P30556); test: agonist activity at AGTR1 – cell-based, uHTS hits, selectivity assay for APJ receptor agonist project, dose response (AID 488865); assay type: functional;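 note: beta-arrestin recruitment to AT1 measured by enzyme fragment complementation luminescence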
T3 sequence (P30556 whole entry): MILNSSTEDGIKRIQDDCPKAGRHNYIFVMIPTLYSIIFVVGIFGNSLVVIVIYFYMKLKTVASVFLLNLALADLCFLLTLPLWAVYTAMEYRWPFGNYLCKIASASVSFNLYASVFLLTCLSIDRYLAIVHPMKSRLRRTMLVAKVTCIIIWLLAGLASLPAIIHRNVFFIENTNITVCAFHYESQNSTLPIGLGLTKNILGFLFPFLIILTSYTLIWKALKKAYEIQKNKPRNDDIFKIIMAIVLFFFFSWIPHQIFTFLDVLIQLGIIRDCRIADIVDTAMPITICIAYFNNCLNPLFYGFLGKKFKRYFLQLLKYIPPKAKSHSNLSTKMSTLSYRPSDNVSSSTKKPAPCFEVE

[10] = molecular target: Mu-type opioid receptor (Homo sapiens, UniProt P35372); test: (§1) Counterscreen for agonists of heterodimerization of the mu 1 (OPRM1) and delta 1 (OPRD1) opioid receptors: Luminescence-based cell-based high throughput dose response assay to identify agonists of OPRM1 homodimerization.; assay type: functional
Sequence of Mu-type opioid receptor (P35372 whole entry): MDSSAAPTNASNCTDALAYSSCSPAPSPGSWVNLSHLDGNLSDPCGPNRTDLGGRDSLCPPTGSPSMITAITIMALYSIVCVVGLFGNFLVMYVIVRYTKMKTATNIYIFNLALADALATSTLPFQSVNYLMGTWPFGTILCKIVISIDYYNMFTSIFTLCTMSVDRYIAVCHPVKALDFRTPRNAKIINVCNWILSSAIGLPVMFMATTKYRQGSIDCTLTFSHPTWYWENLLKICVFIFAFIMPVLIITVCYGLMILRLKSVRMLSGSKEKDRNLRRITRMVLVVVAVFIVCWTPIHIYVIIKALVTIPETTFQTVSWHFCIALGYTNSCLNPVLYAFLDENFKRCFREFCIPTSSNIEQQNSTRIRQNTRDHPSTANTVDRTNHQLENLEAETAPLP

[11] = molecular target: T4, Short transient receptor potential channel 4 (Mus musculus, UniProt Q9QUQ5); test: calcium entry via TRPC4 opening agents – cell-based, HEK293 TRPC4/mu-opioid, Fluo-4 calcium, dose response (AID 434937); assay type: functional
T4 sequence (Q9QUQ5 whole entry): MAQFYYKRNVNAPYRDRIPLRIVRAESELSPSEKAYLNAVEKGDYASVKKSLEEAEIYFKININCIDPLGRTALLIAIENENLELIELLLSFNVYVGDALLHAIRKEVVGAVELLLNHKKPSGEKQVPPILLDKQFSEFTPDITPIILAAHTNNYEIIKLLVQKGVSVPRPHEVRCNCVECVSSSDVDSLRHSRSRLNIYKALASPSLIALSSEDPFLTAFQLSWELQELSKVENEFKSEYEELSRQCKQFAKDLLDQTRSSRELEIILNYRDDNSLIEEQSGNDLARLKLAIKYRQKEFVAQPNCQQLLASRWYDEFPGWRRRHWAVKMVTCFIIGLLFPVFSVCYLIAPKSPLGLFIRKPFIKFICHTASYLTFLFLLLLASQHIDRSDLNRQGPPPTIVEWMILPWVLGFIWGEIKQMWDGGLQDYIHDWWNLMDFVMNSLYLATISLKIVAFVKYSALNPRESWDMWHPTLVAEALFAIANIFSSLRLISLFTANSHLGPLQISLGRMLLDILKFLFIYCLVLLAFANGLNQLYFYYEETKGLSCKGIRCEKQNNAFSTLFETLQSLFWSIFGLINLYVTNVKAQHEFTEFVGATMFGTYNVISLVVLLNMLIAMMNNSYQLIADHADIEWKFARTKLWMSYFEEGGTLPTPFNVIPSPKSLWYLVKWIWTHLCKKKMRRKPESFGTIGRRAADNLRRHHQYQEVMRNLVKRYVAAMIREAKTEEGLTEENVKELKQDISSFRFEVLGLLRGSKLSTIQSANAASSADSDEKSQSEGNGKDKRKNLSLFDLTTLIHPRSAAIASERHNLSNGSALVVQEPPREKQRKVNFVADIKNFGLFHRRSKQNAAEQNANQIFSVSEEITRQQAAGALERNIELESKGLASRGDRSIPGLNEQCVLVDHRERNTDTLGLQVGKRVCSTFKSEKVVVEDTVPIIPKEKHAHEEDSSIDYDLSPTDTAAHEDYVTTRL

[12] = molecular target: T5, Apoptotic protease-activating factor 1 (Homo sapiens, UniProt O14727); assay type: functional
T5 sequence (O14727 whole entry): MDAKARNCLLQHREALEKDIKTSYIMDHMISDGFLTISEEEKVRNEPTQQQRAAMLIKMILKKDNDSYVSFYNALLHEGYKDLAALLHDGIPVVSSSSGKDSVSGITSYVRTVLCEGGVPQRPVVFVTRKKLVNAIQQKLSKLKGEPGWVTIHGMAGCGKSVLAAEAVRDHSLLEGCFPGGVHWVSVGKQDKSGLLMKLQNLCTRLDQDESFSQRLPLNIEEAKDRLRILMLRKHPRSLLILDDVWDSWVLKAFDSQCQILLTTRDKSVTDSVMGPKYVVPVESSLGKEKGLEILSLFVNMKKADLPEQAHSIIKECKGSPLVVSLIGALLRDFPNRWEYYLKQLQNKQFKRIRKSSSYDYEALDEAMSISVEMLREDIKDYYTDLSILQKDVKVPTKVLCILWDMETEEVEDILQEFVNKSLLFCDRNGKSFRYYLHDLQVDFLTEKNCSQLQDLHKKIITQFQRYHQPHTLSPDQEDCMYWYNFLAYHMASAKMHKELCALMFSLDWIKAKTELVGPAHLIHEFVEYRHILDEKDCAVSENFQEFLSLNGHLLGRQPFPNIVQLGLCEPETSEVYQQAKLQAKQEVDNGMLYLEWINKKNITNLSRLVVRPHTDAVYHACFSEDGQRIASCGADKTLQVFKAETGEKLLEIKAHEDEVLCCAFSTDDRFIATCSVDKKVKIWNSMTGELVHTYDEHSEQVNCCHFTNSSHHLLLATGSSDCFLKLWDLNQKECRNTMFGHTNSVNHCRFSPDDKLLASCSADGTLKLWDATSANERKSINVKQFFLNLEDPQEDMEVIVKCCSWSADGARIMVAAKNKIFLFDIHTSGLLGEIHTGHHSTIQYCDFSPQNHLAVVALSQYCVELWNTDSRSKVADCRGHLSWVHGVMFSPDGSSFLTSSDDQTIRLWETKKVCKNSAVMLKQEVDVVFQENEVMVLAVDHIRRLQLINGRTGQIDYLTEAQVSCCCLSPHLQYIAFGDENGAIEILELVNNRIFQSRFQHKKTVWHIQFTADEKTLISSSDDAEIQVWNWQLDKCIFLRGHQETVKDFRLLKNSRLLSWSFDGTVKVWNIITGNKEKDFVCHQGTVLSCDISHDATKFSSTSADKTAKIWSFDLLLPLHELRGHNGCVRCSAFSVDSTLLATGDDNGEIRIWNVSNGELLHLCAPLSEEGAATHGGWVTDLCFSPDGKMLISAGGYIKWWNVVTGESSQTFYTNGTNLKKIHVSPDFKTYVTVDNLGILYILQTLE

[13] = molecular target: Delta-type opioid receptor (Homo sapiens, UniProt P41143); test: as §1, with “of OPRD1” for “of OPRM1”, “homodimerization. [Related pubchem assays (depositor defined):AID504326, AID504355, AID504692, AID504904, AID504905]” for “homodimerization.”; assay type: functional
Sequence of Delta-type opioid receptor (P41143 whole entry): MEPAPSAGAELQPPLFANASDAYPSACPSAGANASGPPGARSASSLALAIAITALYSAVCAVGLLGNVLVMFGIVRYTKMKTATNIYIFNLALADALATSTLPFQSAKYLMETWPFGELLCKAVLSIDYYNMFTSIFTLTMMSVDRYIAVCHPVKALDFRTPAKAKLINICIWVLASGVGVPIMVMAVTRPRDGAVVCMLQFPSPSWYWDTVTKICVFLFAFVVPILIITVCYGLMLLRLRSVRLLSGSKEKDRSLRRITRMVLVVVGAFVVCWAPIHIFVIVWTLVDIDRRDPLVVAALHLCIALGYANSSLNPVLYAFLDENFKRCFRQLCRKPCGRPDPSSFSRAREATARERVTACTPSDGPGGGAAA

[14] = molecular target: T6, Ubiquitin-conjugating enzyme E2 N (Homo sapiens, UniProt P61088); assay type: functional;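 note: Dose-response confirmation in a TR-FRET assay detecting UBC13-driven polyubiquitin chain formation, inhibition measured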
T6 sequence (P61088 whole entry): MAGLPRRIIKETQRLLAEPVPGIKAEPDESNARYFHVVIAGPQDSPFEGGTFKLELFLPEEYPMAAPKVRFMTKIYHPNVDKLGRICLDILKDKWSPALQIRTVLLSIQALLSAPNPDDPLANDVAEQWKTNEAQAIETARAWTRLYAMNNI

T1 sequence (Q01196 whole entry, the tested form may be a part): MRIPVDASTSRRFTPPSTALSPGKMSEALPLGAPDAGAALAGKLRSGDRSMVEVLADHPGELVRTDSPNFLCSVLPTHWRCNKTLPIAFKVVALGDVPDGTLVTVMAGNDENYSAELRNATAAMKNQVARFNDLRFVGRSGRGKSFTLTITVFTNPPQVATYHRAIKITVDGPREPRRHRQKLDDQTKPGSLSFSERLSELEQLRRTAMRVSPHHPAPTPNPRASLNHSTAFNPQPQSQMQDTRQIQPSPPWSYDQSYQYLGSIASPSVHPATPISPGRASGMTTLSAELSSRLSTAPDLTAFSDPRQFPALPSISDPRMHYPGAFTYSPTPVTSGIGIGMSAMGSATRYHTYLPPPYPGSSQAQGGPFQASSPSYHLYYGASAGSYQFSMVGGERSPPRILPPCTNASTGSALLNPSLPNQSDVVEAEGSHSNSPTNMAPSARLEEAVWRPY
T1 sequence (Q13951 whole entry, the tested form may be a part): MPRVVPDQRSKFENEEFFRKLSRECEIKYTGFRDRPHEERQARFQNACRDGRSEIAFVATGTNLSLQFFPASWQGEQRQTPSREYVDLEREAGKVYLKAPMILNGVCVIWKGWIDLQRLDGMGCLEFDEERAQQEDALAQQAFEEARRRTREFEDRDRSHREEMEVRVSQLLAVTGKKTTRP

## N#Cc1cc2c(=O)n3ccccc3nc2n(Cc2ccco2)/c1=N/C(=O)c1ccco1
[1]
  IC50: 56.1 µM (inactive)
[2]
  IC50: > 66 µM (inactive)
[3]
  IC50: > 66 µM (inactive)
[4]
  IC50: 1.67 µM (active)

## COCc1nnc(SCC(=O)NCc2ccccc2)n1-c1ccccc1
[5]
  EC50: > 29.9 µM (inactive)
[6]
  EC50: > 29.9 µM (not active)

## CN(C)CCCN(C(=O)c1ccc(S(=O)(=O)N2CCc3ccccc3C2)cc1)c1nc2ccc(F)cc2s1
[7]
  CC50: 31.1 µM (active)
[8]
  EC50: > 92.5 µM (inactive)
[9]
  EC50: > 100 µM (inactive)
[10]
  EC50: 3.28 µM (active)
[11]
  EC50: 0.596 µM (active)
[12]
  IC50: 47.9 µM (active)
[13]
  EC50: > 92.5 µM (inactive)
[14]
  IC50: > 20 µM (inactive)
